Measured values: patent US4920121A
Read-outs that look alike come from different tables or passages of the source.

What was measured:
[1] = test system: male, Charles River mice, CF-1; experiment: rotorod motor coordination (RMC) test
Description: In order to differentiate between specific antiagressive effects and an inhibition of fighting due to debilitation, rotorod motor coordination (RMC) tests were conducted according to an adaptation of the method of Dunham et al., J. Am. Pharm. Assc. […] The amount of time spent on the rod (maximum of 60 seconds) was recorded and compared with the vehicle treated control animals. […] In comparison, the minimum effective dose (mg/kg i.p.) of buspirone in the isolation induced aggression study was 10.0 mg/kg and greater than 60.0 mg/kg in producing ataxia as evaluated by the rotorod motor coordination study.

[2] = test system: male CD rats (Charles River); experiment: discrete trial conditioned avoidance responding (CAR) test; assay type: in vivo; details: Rattus norvegicus, ip, thirty minutes before the test, instant test procedure, read-out: ED50 (reduction in avoidance responding)
Description: The conditioned avoidance responding (CAR) test was conducted in male CD rats (Charles River) maintained at approximately 400-450 g body weight. Rats trained previously were placed in Plexiglas® experimental chambers equipped with a response lever, house light and sonalert. The steel grid chamber floor is wired for presentation of an electric shock. Each trial consists of a fifteen second warning tone conditioned stimulus, continuing for an additional fifteen seconds accompanied by electric shock (unconditioned stimulus). The rat can terminate a trial at any point by depressing the response lever. A response during the initial fifteen second warning tone ends the trial before shock delivery and is considered an avoidance response. A response occurring during shock delivery is an escape response. […] The ED50 of the test compound is calculated from the percentage reduction in avoidance responding and represents that dose at which only half the responses are made.

[3] = molecular target: T1, post synaptic 5-HT1A receptor (Rattus norvegicus, UniProt P19327); details: for in vivo postsynaptic 5-HT1A activity profile in serotonin syndrome tests: rats, i.p.
T1 sequence (P19327 1-422): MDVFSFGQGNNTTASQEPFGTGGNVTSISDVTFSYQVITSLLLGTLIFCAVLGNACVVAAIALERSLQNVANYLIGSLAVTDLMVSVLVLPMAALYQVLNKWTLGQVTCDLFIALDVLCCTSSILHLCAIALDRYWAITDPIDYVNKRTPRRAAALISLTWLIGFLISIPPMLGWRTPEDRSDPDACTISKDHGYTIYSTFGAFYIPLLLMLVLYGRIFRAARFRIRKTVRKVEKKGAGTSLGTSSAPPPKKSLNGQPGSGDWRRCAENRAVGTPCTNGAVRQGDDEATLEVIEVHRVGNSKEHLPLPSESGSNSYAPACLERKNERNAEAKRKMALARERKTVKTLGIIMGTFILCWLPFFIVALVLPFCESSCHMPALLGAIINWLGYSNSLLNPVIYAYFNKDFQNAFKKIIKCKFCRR
Description: (§1) Serotonin syndrome tests were conducted according to the method of Smith et al., Pharmacol. Biochem. and Behav., 24 1513 (1986).
(§2) Male Sprague-Dawley CD rats (Charles River) weighing 200-300 g were housed 6/cage with food and water available ad libitum. Animals were allowed to acclimate to the animal colony for at least 1 week prior to testing. Rats were placed individually into plexiglas® observation cages with a layer of bedding covering the bottom. […] During the 15 minute pretreatment, subjects were scored for the presence of the 5-HT syndrome (agonist activity). After the 8-OH-DPAT injection, all subjects were scored for an additional 15 minutes to identify antagonist activity. Scoring the 5-HT syndrome consisted of rating the following behaviors: (1) forepaw treading, (2) head-weaving, (3) tremor, (4) hindlimb abduction, (5) flattened body posture, and (6 ) Straub tail on a 4-point ranked intensity scale with a maximum score of 18. Results were expressed as mean total score (+/-SEM) for induction of syndrome and for antagonism of syndrome.

5-HT1A receptors = details: Martin et al., European J. of Pharmacol. 156 223 (1988); cited from earlier work
[4] = test system: male CD rats (Charles River); details: i.p., reported by Martin et al. 1988; cited from earlier work
[5] = test system: male Charles River, CF-1 mice; experiment: isolation-induced aggression test; details: for total fighting time (TFT): 60 minutes before testing, 3 minute test, vehicle controls 15.7 seconds
Description: The isolation-induced aggression test was conducted with male mice in an adaptation of the method of DaVanzo et al., Psychopharmacology, (Berlin) 9 210 (1966) whereby male Charles River, CF-1 mice, 16-20 g in weight were individually housed for a period of three weeks and then trained to attack an intruder mouse which had been group housed (10/cage). […] The total fighting time (TFT) in seconds was recorded during a 3 minute test period upon introduction of the intruder mouse into the cage of the aggressive mouse.

[6] = molecular target: T1, post synaptic 5-HT1A receptor; experiment: in vivo; details: ip
Description: as §1, §2

Row | SMILES | dosage at which mice became debilitated (rotorod) ([1]; intraperitoneally 60 minutes before rotorod) | debilitating dose relative to dose that antagonized aggressive activity ([1]; rotorod vs isolation-induced aggression, mice i.p.) | ED50 [2] | antagonism of serotonin syndrome induced by 8-OH-DPAT ([3]; 33 mg/kg i.p., 15 minutes prior to 5.6 mg/kg i.p. 8-OH-DPAT) | induction of 5-HT syndrome (agonist activity) ([3]; 10 and 30 mg/kg i.p., scored during 15 minute pretreatment) | in vivo postsynaptic 5-HT1A activity profile in serotonin syndrome tests [3] | Ki (5-HT1A receptors) | ED50 (reduction in avoidance responding) [4] | total fighting time (TFT) ([5]; 0.5 mg/kg i.p.) | total fighting time (TFT) ([5]; 1.0 mg/kg i.p.) | total fighting time (TFT) ([5]; 3.0 mg/kg i.p.) | minimum effective dose in producing ataxia (rotorod motor coordination) ([1]; mouse, in vivo, ip) | ED50 ([6]; read-out: agonist ED50) | ED50 ([6]; read-out: antagonist ED50) | minimal effective dose ([5]; Mus musculus, ip, 1 h, read-out: minimum effective dose in the isolation induced aggression study)
1 | COc1ccccc1N1CCNCC1 | ≥ 30.0 mg/kg | at least ten times the dose that antagonized aggressive activity | 10.6 mg/kg | antagonized the serotonin syndrome | displayed agonist activity | weak partial agonist activity | 9.5 nM | 5.6 mg/kg | 5.1 s | 0.7 s | 0.1 s |  |  |  | 
2 | O=C1CC2(CCCC2)CC(=O)N1CCCCN1CCN(c2ncccn2)CC1 [buspirone, reference compound] |  |  |  |  |  | partial agonist profile |  |  |  |  |  | greater than 60.0 mg/kg | 7 mg/kg | 4 mg/kg | 10 mg/kg
